According to US4695573A (Hoechst-Roussel Pharmaceuticals Inc., priority 1985, dated 1987):
Counter-ions that a name gives are not always drawn. Like-named read-outs stand apart in the source and are kept apart here.

Key:
acetylcholinesterase = acetylcholinesterase (Homo sapiens, UniProt P22303); assay: Cholinesterase Inhibition Assay (photometric method of Ellman et al.); format: biochemical
[1] = test system: cholinergically deficient memory; assay: Dark Avoidance Assay (block of scopolamine-induced memory impairment); format: in vivo, mice; conditions: Mus musculus, read-out: % of Animals Greater than Scopolamine; for responders at 0.16 mg/kg: dose 0.16 mg/kg of body weight; for responders at 5 mg/kg: dose 5.0 mg/kg of body weight; for responders at 2.5 mg/kg: dose 2.5 mg/kg of body weight; for responders at 1.25 mg/kg: dose 1.25 mg/kg of body weight
Description: In this assay mice are tested for their ability to remember an unpleasant stimulus for a period of 24 hours. A mouse is placed in a chamber that contains a dark compartment; a strong incandescent light drives it to the dark compartment, where an electric shock is administered through metal plates on the floor. The animal is removed from the testing apparatus and tested again, 24 hours later, for the ability to remember the electric shock.
If scolopamine, an anticholinergic that is known to cause memory impairment, is administered before an animal's initial exposure to the test chamber, the animal re-enters the dark compartment shortly after being placed in the test chamber 24 hours later.

[2] = mice, dose 0.63 mg/kg of body weight, retest after 24 hours
[3] = photometric method of Ellman, read-out: Cholinesterase Inhibition IC50

Chain of acetylcholinesterase (P22303 32-614): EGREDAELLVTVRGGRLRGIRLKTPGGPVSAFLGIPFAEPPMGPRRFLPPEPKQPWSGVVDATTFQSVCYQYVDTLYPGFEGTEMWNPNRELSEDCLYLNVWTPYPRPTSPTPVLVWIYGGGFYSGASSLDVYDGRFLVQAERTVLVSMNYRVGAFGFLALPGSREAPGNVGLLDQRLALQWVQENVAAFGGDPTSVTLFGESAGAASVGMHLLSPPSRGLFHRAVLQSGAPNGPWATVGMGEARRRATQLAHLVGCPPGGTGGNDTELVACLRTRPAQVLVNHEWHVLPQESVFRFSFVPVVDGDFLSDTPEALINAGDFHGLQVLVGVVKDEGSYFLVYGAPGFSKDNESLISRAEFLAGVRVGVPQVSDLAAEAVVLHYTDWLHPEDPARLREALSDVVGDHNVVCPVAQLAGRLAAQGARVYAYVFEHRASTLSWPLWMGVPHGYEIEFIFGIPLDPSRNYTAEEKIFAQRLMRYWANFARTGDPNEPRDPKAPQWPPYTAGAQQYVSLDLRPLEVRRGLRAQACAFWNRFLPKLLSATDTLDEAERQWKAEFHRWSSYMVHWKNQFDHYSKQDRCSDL

## OC1CCCc2nc3ccccc3c(NCc3ccccc3C(F)(F)F)c21 (stereo not shown) [1,2,3,4-Tetrahydro-9-(2-trifluoromethylbenzylamino)acridin-1-ol]
acetylcholinesterase
  IC50: 920 µM
[1]; mice, retest after 24 hours
  responders at 0.16 mg/kg: 38%

## OC1CCCc2nc3ccccc3c(NCc3ccc(C(F)(F)F)cc3)c21 (stereo not shown) [1,2,3,4-Tetrahydro-9-(4-trifluoromethylbenzylamino)acridin-1-ol]
acetylcholinesterase
  IC50: 550 µM
[1]; mice, retest after 24 hours
  responders at 0.16 mg/kg: 22%

## O=C1CCCc2nc3ccccc3c(NCCCC(c3ccccc3)c3ccccc3)c21 [3,4-Dihydro-9-(4,4-diphenylbutylamino)acridin-1(2H)-one]
acetylcholinesterase
  IC50: 13 µM
[1]; [2]
  responders at 0.63 mg/kg: 50%

## O=C1CCCc2nc3ccccc3c(NCCCC(c3cccc(F)c3)c3cccc(F)c3)c21 [3,4-Dihydro-9-[4,4-bis(3-fluorophenyl)butylamino]acridin-1(2H)-one]
acetylcholinesterase
  IC50: 1.9 µM
[1]; mice, retest after 24 hours
  responders at 5 mg/kg: 40%

## OC1CCCc2nc3ccccc3c(NCc3ccccc3Cl)c21 (stereo not shown) [9-(2-Chlorobenzylamino)-1,2,3,4-tetrahydroacridin-1-ol]
acetylcholinesterase
  IC50: 130 µM
[1]; mice, dose 0.31 mg/kg of body weight, retest after 24 hours
  responders at 0.31 mg/kg: 27%

## OC1CCCc2nc3ccccc3c(NCc3ccccc3F)c21 (stereo not shown) [9-(2-Fluorobenzylamino)-1,2,3,4-tetrahydroacridin-1-ol maleate]
acetylcholinesterase
  IC50: 210 µM
[1]; mice, retest after 24 hours
  responders at 2.5 mg/kg: 27%

## COc1ccccc1CNc1c2c(nc3ccccc13)CCCC2O (stereo not shown) [9-(2-Methoxybenzylamino)-1,2,3,4-tetrahydroacridin-1-ol]
acetylcholinesterase
  IC50: 150 µM
[1]; mice, dose 0.21 mg/kg of body weight, retest after 24 hours
  responders at 0.21 mg/kg: 33%

## OC1CCCc2nc3ccccc3c(NCc3ccc(F)cc3)c21 (stereo not shown) [9-(4-fluorobenzylamino)-1,2,3,4-tetrahydroacridin-1-ol]
acetylcholinesterase
  IC50: 110 µM
[1]; mice, retest after 24 hours
  responders at 1.25 mg/kg: 33%

## Nc1c2c(nc3cc(C(F)(F)F)ccc13)CCCC2O (stereo not shown) [9-Amino-1,2,3,4-tetrahydro-6-trifluoromethylacridin-1-ol]
[1]; [2]
  responders at 0.63 mg/kg: 71%

## Nc1c2c(nc3ccccc13)CCCC2O (stereo not shown) [9-Amino-1,2,3,4-tetrahydroacridin-1-ol]
[1]; [2]
  responders at 0.63 mg/kg: 33%

## Nc1c2c(nc3ccccc13)CCCC2=O [9-Amino-3,4-dihydroacridin-1(2H)--one, 9-Amino-3,4-dihydroacridin-1(2H)-one]
acetylcholinesterase; [3]
  IC50: 250 µM

## Nc1c2c(nc3ccccc13)CCC=C2 [9-Amino-3,4-dihydroacridine]
acetylcholinesterase
  IC50: 6.5 µM
[1]; mice, retest after 24 hours
  responders at 2.5 mg/kg: 20%

## OC1CCCc2nc3ccccc3c(NCc3ccccc3)c21 (stereo not shown) [9-Benzylamino-1,2,3,4-tetrahydroacridin-1-ol]
[1]; mice, retest after 24 hours
  responders at 1.25 mg/kg: 27%

## O=C1CCCc2nc3cc(F)ccc3c(NCc3ccccc3)c21 [9-Benzylamino-3,4-dihydro-6-fluoroacridin-1(2H)-one, maleate]
[1]; mice, retest after 24 hours
  responders at 5 mg/kg: 40%

## OC1CCCc2nc3ccccc3c(NCCc3ccccc3)c21 (stereo not shown) [9-Phenethylamino-1,2,3,4-tetrahydroacridin-1-ol]
acetylcholinesterase; [3]
  IC50: 240 µM

## OC1CCCc2nc3ccccc3c(NCc3c(F)c(F)c(F)c(F)c3F)c21 (stereo not shown) [9-[(2,3,4,5,6-Pentafluorobenzyl)amino]-1,2,3,4-tetrahydroacridin-1-ol, fumarate]
acetylcholinesterase
  IC50: 350 µM
[1]; mice, retest after 24 hours
  responders at 5 mg/kg: 20%

## CC[C@@H]1C(=O)OC[C@@H]1Cc1cncn1C [Pilocarpine, reference compound]
[1]; mice, retest after 24 hours
  responders at 5 mg/kg: 13%

## Nc1c2c(nc3ccccc13)CCCC2 [Tacrine, 9-Amino-1,2,3,4-tetrahydroacridine, reference compound]
[1]; 24 h
  responders at 0.63 mg/kg: 13%
